Results as given in patent publication US11969396B2, “IPA-3-loaded liposomes and methods of use thereof” (University of Georgia Research Foundation, Inc., priority 2016, dated 2024).

Experiments:
[1] = tested on: human prostate cancer cell lines PC-3, LNCaP and DU-145; assay: In vitro cytotoxicity, MTT staining, across the prostate cancer cell lines; assay type: cell-based
Description: (§1) The human prostate cancer cell lines PC-3, LNCaP and DU-145 and the breast cancer cell lines MCF-7 and MDA-231 were purchased from ATCC (Manassas, Va.). PC-3, LNCaP, and DU-145 cells were cultured in F12K, RPMI, and EMEM, respectively. MCF-7 and MDA-231 cells were cultured in RPMI. All culture media were supplemented with 10% FBS and 1% penicillin/streptomycin antibiotics (ATCC). All the cells were maintained at 37° C. in incubators with 5% CO2 and humidified atmosphere.
(§2) The cytotoxicity of the liposomal IPA-3 as well as the free IPA-3 was determined in three prostate cancer cell lines (PC-3, LNCaP, and DU-145) using the MTT assay (Twentyman, et al., Br J Cancer. 1987; 56: 279-85). Free IPA-3 and SSL-IPA-3 were used for comparison. Cells were seeded in 48-well tissue culture plates at 5×10^4 cells/ml and incubated at 37° C. in a 5% CO2 incubator for 24 hr. This time was sufficient for the cells to attach and resume their growth. Liposomes were diluted in the different culture media to their final concentrations and experiments were performed in triplicates. […] Plates were shaken for 15 min and absorbance was read at 590 nm using a Spectra Max M2 plate reader (BMG Lab Technologies, Inc., Durham, NC). […]

LNCaP cells = assay: In vitro cytotoxicity, MTT staining; assay type: cell-based; conditions: Homo sapiens
Description: as §1, §2

PC-3 cells [2] = assay: In vitro cytotoxicity, MTT staining; assay type: cell-based; conditions: Homo sapiens
Description: as §1, §2

MCF-7 cells = assay: In vitro cytotoxicity, MTT staining; assay type: cell-based; conditions: Homo sapiens, MCF7
MDA-231 cells = assay: In vitro cytotoxicity, MTT staining; assay type: cell-based; conditions: Homo sapiens, MDA-MB-231
[3] = free form (Rudolph et al. 2015); cited from earlier work
[4] = tested on: PC-3 cell tumor xenografts; assay: In vivo prostate tumor xenograft growth; parameters: species or system athymic nude mice; conditions: 5 mg/kg i.p., 2 days/week, from day 7 to day 25
Description: (§3) All animal procedures listed in this article were performed as per the protocol approved by the Institutional Animal Care and Use Committee at the Charlie Norwood Veterans Affairs Medical Center, Augusta, GA (protocol #12-06-049). PC-3 cells were grown to 60-70% confluent in 225-ml flasks. Next, cells were collected and suspended in sterile normal saline. Cell suspension (3 million cells//mouse) was injected subcutaneously (SC) in 6-8-weeks-old male athymic nude mice (Harlan, Indianapolis, IN) (n=5-6). All the treatments (DMSO, empty liposomes, free IPA-3 (5 mg/Kg), and SSL-IPA-3 (5 mg/kg) were started on day 7 from tumor implantation, and were administered two times a week (i.p.). Tumor diameters were measured with digital calipers on day 7, 14, 21, and 25, and the tumor volume in mm^3 were calculated by the modified ellipsoidal formula (Tumor volume=½[length×width^2]). Average size of the tumors prior to the treatment with free IPA-3 and SSL-IPA-3 were 42 mm^3. Mice were sacrificed on day 25 and tumors were dissected, weighed, and snap-frozen for further immunohistochemistry analysis.

[5] = tested on: PC-3 cell prostate tumor xenografts; assay: TUNEL assay of apoptosis in tumor xenograft sections; assay type: in vivo, athymic nude mice; conditions: 5 mg/kg i.p., 2 days/week; day 25
Description: as §3
The TUNEL assay for in situ detection of apoptosis was performed using the ApopTag® Fluorescein in situ Apoptosis detection kit (Millipore, MA) as described previously8. Frozen sections taken from prostate tumor xenografts were fixed in 2% paraformaldehyde at 4° C. for 30 min. […]

[6] = tested on: PC-3 cell tumor xenografts; conditions: daily administration (Al-Azayzih et al. 2015); cited from earlier work
PC-3 cells [7] = assay: Cell death by annexin V and PI staining, flow cytometry; assay type: cell-based, human; conditions: 48 hr, free IPA-3 20-30 μM
DU-145 cells = assay: In vitro cytotoxicity, MTT staining; assay type: cell-based, human
Description: as §1, §2

[8] = Body weight of tumor bearing mice; assay type: in vivo, athymic nude mice; conditions: 5 mg/kg i.p., 2 days/week; after 25 days
Description: as §3

Oc1ccc2ccccc2c1SSc1c(O)ccc2ccccc12 [IPA-3, 1,1′-Dithiodi-2-naphthtol]
IC50 ([1]; Homo sapiens, depending on the cell line, MTT staining): 10 to 35 µM
effect on MTT staining ([1]; concentrations of 5-30 μM, 24, 48, 72 hrs): concentration-and time-dependent decreases in MTT staining
IC50 (LNCaP cells): 10 µM
IC50 (PC-3 cells [2]): 12 µM
IC50 (MCF-7 cells): 25 µM
IC50 (MDA-231 cells): 8 µM
half-life in vivo [3]: very short half-life
PC-3 cell tumor xenograft growth [4]: did not have a significant effect
number of apoptotic (TUNEL positive) cells per field compared to control groups [5]: significant increases
prostate tumor xenograft growth [6]: reduced prostate tumor xenograft growth
percent of cells staining positive for annexin V alone (PC-3 cells [7]): significantly increased
percent of cells staining positive for both annexin V and PI (PC-3 cells [7]): significantly increased
susceptibility of DU-145 cells compared to PC-3 and LNCaP cells (DU-145 cells): less susceptible
IC50 (DU-145 cells; Homo sapiens, DU-145, DU-145): ~32 µM
effect on body weight of mice [8]: no significant effect
